Test results: paper PMC9898036, “VIP152 is a selective CDK9 inhibitor with pre-clinical in vitro and in vivo efficacy in chronic lymphocytic leukemia” (Leukemia, 2022)

Tests used:
IRAK1 = IRAK1 (Homo sapiens, UniProt P51617); test: KINOMEscan: IRAK1; type: binding
Description: The structure and synthesis of VIP152 were recently described by Lücking et al.. (Fig. 1A); however, the selectivity of the molecule in cellular systems has yet to be explored. […] We also performed this experiment at 1000 nM, where CDK9 was inhibited at 99%. […] We found a strong concordance between our data and those of Lücking when comparing the most inhibited kinases. Potential off-target effects of VIP152 were next tested in vitro at a concentration of 10 µM for off-target activity against a broad range of receptors, transporters, ion channels, and enzymes (n = 138) using the Eurofins Diversity Panel.
Kinomescan Kinase Profiling Assay
Kinomescan Assay was performed at DiscoverRX and described in Fabian, et al. 2005, Nat.
Biotechnol. In brief, kinases were produced and subsequently tagged with DNA for qPCR detection.
Streptavidin-coated magnetic beads were bound to biotinylated kinase ligands to serve as a solid support.
VIP152 was dissolved in DMSO and tested across a 10 serial threefold dilution set and compared to a test compound and a DMSO control. Kinases which were inhibited by VIP152 would not be bound to the solid-support resulting in decreased substrate for the qPCR reaction. Kinome map was produced via TreeSpot Analysis from DiscoverRX. […]
NanoBRETTM Target Engagement Assay Protocol […]
Complete 20X NanoBRET Tracer Reagent was prepared with Tracer Dilution Buffer and dispensed at a ratio of 1:20 Reagent to cells in the tube. The cell

GSK3β [1] = biological target: T1, GSK3β (Homo sapiens, UniProt P49841); test: NanoBRET target engagement assay (HEK293); type: cell-based
Adrenergic β2 = Adrenergic β2 (Homo sapiens, UniProt P07550); test: Eurofins Diversity Panel; type: binding; settings: hum, Conc. 10 μM
[2] = test system: GABAA, Flunitrazepam, Central; test: Eurofins Diversity Panel; type: binding; settings: rat, Conc. 10 μM
[3] = test system: Glutamate, NMDA, Phencyclidine; test: Eurofins Diversity Panel; type: binding; settings: rat, Conc. 10 μM
[4] = biological target: RPS6KA5(Kin.Dom.1-N-terminal) (Homo sapiens, UniProt O75582); test: KINOMEscan: RPS6KA5(Kin.Dom.1-N-terminal); type: binding; settings: 100 nM, read-out: Percent Control
[5] = biological target: RSK1(Kin.Dom.2-C-terminal) (Homo sapiens, UniProt Q15418); test: KINOMEscan: RSK1(Kin.Dom.2-C-terminal); type: binding; settings: 100 nM, read-out: Percent Control
SYK = SYK (Homo sapiens, UniProt P43405); test: KINOMEscan: SYK; type: binding; settings: 100 nM, read-out: Percent Control
TNNI3K = TNNI3K (Homo sapiens, UniProt Q59H18); test: KINOMEscan: TNNI3K; type: binding; settings: 100 nM, read-out: Percent Control
TRKC = TRKC (Homo sapiens, UniProt Q16288); test: KINOMEscan: TRKC; type: binding; settings: 100 nM, read-out: Percent Control
VEGFR2 = VEGFR2 (Homo sapiens, UniProt P35968); test: KINOMEscan: VEGFR2; type: binding; settings: 100 nM, read-out: Percent Control
ALK(L1196M) = ALK(L1196M) (Homo sapiens, UniProt Q9UM73, L1196M); test: KINOMEscan: ALK(L1196M); type: binding; settings: 1000 nM, read-out: Percent Control
DAPK3 = DAPK3 (Homo sapiens, UniProt O43293); test: KINOMEscan: DAPK3; type: binding; settings: 1000 nM, read-out: Percent Control
EGFR = EGFR (Homo sapiens, UniProt P00533); test: KINOMEscan: EGFR; type: binding; settings: 1000 nM, read-out: Percent Control
[6] = biological target: EGFR(L747-E749del, A750P) (Homo sapiens, UniProt P00533, A750P/DEL747-749); test: KINOMEscan: EGFR(L747-E749del, A750P); type: binding; settings: 1000 nM, read-out: Percent Control
ERK2 = ERK2 (Homo sapiens, UniProt P28482); test: KINOMEscan: ERK2; type: binding; settings: 1000 nM, read-out: Percent Control
FAK = FAK (Homo sapiens, UniProt Q05397); test: KINOMEscan: FAK; type: binding; settings: 1000 nM, read-out: Percent Control
FGFR1 = FGFR1 (Homo sapiens, UniProt P11362); test: KINOMEscan: FGFR1; type: binding; settings: 1000 nM, read-out: Percent Control
IGF1R = IGF1R (Homo sapiens, UniProt P08069); test: KINOMEscan: IGF1R; type: binding; settings: 1000 nM, read-out: Percent Control
KIT(L576P) = KIT(L576P) (Homo sapiens, UniProt P10721, L576P); test: KINOMEscan: KIT(L576P); type: binding; settings: 1000 nM, read-out: Percent Control
MEK4 = MEK4 (Homo sapiens, UniProt P45985); test: KINOMEscan: MEK4; type: binding; settings: 1000 nM, read-out: Percent Control
MELK = MELK (Homo sapiens, UniProt Q14680); test: KINOMEscan: MELK; type: binding; settings: 1000 nM, read-out: Percent Control
MST1 = MST1 (Homo sapiens, UniProt Q13043); test: KINOMEscan: MST1; type: binding; settings: 1000 nM, read-out: Percent Control
[7] = biological target: CDK9 in complex with Cyclin T1 (Homo sapiens, UniProt P50750); test: HotSpot radiometric kinase assay; type: biochemical; design: purchased ReactionBio
Description: (§1) We next compared VIP152 to other CDK inhibitors currently in development. […] The compounds were tested in a 10-dose series from 0.5 nM to 10 µM against CDK9 in complex with Cyclin T1/T2/K, CDK7/Cyclin H, and GSK3α/β. […]
(§2) HotSpot Kinase Assay Protocol
(§3) Compounds tested via HotSpot Kinase Assay were sent to ReactionBio for the experiment. The […]
(§4) Kinase substrate was added to reaction buffer (20 mM Hepes (pH 7.5), 10 mM MgCl2, 1 mM EGTA, 0.01% Brij35, 0.02 mg/ml BSA, 0.1 mM Na3VO4, 2 mM DTT, 1% DMSO). Cofactors and kinases were gently added to the reaction buffer. Compounds to be tested were dissolved in 100% DMSO and were delivered into the kinase reaction mixture by Acoustic technology (Echo550; nanoliter range) and incubated for 20 min at room temperature. 32P-ATP was delivered into the reaction mixture and the reaction was allowed to proceed for 2 hours. Kinase activity was detected by P81 filter-binding method.

[8] = biological target: CDK9 in complex with Cyclin T2 (Homo sapiens, UniProt P50750); test: HotSpot radiometric kinase assay; type: biochemical; design: purchased ReactionBio; settings: 10-dose series from 0.5 nM to 10 µM; vs dinaciclib, KB-0742, atuveciclib
Description: as §1, §2, §3, §4

GSK3β [9] = biological target: T1, GSK3β; test: HotSpot radiometric kinase assay; type: biochemical; design: purchased ReactionBio; settings: 10-dose series from 0.5 nM to 10 µM; vs dinaciclib, KB-0742, atuveciclib
Description: as §1, §2, §3, §4

Chain of IRAK1 (P51617 whole entry): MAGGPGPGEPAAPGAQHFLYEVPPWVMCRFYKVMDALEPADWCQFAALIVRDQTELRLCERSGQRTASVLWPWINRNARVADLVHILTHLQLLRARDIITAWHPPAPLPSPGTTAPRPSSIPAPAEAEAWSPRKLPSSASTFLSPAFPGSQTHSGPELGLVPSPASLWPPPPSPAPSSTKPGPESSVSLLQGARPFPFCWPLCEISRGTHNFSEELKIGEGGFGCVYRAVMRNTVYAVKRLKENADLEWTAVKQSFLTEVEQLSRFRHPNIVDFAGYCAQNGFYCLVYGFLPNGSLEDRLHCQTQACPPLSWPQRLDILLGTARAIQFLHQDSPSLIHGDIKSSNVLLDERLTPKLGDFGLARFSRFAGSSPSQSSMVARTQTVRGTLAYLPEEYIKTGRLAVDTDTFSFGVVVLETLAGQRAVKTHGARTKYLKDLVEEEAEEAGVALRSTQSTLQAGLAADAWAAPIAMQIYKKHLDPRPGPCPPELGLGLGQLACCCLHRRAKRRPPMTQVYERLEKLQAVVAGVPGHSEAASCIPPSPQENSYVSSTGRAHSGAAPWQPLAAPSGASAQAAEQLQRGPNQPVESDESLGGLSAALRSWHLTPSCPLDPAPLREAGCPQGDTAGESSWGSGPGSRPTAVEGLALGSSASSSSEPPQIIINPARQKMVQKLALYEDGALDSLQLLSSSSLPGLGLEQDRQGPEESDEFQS
T1 sequence (P49841 whole entry): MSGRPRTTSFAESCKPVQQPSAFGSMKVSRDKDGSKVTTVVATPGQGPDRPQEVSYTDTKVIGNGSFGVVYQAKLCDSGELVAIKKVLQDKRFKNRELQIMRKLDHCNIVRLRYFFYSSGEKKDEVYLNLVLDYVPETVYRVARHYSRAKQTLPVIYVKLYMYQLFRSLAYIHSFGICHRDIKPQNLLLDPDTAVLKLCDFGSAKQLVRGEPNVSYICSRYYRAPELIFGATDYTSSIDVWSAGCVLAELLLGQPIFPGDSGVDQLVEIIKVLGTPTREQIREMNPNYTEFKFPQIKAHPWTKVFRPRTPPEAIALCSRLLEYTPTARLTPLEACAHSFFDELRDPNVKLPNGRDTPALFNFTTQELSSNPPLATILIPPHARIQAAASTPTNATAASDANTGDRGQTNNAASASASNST
Chain of CDK9 in complex with Cyclin T1 (P50750 whole entry): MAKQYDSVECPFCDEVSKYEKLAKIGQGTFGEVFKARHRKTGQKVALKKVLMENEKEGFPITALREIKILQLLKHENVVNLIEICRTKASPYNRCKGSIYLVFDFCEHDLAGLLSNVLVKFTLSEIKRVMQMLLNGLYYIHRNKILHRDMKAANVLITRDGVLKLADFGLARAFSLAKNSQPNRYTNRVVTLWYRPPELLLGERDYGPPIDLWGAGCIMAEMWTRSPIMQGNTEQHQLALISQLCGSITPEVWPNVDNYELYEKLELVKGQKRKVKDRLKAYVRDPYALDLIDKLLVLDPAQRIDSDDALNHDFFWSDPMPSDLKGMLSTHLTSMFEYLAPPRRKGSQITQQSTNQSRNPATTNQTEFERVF
Chain of CDK9 in complex with Cyclin T1 (O60563 whole entry partner): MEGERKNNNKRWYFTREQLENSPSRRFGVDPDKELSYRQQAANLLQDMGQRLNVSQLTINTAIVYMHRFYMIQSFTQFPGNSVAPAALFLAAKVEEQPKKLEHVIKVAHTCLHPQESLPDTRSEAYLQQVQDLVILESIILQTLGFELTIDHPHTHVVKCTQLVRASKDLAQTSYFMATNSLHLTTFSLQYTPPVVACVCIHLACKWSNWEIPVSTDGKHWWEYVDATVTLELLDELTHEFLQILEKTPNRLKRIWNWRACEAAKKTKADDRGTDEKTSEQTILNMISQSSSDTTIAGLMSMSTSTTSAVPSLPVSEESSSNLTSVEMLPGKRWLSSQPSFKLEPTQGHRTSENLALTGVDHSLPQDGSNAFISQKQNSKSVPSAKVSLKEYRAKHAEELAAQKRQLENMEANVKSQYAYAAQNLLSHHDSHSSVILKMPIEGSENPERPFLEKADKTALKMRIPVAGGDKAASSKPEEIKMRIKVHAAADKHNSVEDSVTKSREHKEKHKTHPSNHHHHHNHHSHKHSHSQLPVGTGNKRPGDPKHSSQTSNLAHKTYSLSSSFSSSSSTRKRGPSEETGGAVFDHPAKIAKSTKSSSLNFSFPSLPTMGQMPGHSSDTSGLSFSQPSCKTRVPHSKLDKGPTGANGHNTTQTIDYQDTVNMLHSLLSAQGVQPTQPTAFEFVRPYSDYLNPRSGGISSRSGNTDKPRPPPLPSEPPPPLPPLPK
Chain of ERK2 (P28482 whole entry): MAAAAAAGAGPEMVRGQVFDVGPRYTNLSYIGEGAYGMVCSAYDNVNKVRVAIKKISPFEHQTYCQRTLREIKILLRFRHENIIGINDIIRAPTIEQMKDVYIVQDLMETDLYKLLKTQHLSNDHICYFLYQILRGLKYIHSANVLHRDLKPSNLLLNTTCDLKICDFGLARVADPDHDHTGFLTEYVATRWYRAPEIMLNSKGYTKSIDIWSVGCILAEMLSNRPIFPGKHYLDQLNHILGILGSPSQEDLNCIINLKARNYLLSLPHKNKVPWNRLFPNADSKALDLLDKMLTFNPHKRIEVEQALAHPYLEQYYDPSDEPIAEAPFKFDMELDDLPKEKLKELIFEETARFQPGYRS
Chain of TRKC (Q16288 32-839): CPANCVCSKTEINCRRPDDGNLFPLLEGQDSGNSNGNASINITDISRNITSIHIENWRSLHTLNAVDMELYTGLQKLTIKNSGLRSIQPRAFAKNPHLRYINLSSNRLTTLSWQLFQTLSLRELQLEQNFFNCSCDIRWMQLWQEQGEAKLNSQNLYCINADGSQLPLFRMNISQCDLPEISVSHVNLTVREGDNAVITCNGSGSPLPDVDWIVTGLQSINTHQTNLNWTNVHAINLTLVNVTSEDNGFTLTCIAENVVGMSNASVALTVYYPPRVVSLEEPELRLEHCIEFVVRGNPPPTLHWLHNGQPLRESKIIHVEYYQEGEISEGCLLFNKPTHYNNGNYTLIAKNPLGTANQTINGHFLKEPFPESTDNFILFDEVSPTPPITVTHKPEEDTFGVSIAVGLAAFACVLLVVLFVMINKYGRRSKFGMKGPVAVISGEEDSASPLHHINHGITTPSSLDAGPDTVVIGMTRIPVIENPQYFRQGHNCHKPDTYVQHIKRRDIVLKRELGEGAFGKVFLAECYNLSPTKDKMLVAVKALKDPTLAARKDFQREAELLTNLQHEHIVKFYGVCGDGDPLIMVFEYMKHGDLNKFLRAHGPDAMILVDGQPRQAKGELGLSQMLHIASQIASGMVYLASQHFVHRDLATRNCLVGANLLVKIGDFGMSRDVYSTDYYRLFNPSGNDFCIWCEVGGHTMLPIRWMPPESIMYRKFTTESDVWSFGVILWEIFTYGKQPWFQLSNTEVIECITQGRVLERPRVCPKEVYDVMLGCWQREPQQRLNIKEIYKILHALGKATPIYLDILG
Chain of Adrenergic β2 (P07550 whole entry): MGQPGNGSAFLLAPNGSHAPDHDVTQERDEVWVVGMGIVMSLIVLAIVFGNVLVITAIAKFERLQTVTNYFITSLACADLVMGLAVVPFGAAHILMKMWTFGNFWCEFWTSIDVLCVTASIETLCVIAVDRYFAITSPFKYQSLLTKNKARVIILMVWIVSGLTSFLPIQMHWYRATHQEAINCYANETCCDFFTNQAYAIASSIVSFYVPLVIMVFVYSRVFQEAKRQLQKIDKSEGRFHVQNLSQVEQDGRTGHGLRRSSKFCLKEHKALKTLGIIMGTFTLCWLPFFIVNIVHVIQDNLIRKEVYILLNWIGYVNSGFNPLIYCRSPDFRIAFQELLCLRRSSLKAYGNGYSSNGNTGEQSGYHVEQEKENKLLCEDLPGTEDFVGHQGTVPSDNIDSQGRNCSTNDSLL
Chain of MELK (Q14680 whole entry): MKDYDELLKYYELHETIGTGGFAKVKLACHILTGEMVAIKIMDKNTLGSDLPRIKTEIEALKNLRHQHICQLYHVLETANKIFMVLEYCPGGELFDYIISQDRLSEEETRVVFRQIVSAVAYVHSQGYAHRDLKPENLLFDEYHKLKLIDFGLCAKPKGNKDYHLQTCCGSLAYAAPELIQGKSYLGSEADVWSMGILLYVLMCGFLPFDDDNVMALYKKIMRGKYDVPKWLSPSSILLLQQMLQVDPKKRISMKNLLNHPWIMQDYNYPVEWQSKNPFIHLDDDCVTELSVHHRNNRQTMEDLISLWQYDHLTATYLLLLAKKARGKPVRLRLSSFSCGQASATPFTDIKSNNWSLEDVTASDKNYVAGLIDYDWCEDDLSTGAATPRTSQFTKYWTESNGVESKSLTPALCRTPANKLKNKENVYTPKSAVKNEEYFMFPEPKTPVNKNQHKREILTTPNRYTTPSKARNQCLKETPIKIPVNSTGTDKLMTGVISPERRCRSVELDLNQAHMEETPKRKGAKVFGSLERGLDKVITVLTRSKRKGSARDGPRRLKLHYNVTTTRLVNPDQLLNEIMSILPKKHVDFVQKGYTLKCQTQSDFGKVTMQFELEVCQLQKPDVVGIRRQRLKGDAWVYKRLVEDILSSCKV
Chain of MEK4 (P45985 whole entry): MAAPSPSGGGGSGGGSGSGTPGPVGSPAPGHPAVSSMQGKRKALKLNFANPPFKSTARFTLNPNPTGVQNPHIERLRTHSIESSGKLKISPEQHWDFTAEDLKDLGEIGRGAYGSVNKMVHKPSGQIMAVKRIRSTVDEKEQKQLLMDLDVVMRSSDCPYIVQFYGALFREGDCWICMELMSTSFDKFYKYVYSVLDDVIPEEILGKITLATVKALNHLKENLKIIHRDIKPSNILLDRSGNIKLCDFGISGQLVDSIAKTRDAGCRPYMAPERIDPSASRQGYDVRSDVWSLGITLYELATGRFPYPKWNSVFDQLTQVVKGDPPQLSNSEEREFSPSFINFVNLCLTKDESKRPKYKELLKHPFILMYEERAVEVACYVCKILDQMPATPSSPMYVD

COc1cc(F)ccc1-c1cc(Nc2cc(CS(C)(=N)=O)ccn2)ncc1F (centres unmarked) [VIP152]
inhibition at 1 µM (IRAK1; 1000 nM): 98.4% | remaining binding at 0.1 µM (IRAK1; IRAK1, 100 nM, read-out: Percent Control): 59% | remaining binding at 1 µM (IRAK1; IRAK1, 1000 nM, read-out: Percent Control): 1.6% | inhibitory capacity against GSK3β (GSK3β [1]): Inhibits | inhibition at 10 µM (Adrenergic β2): 3% | % Inh. [2]: 6% | % Inh. [3]: 5% | remaining binding at 0.1 µM [4]: 100% | remaining binding at 0.1 µM [5]: 100% | remaining binding at 0.1 µM (SYK): 100% | remaining binding at 0.1 µM (TNNI3K): 100% | remaining binding at 0.1 µM (TRKC): 83% | remaining binding at 0.1 µM (VEGFR2): 89% | remaining binding at 1 µM (ALK(L1196M)): 91% | remaining binding at 1 µM (DAPK3): 91% | remaining binding at 1 µM (EGFR): 81% | remaining binding at 1 µM [6]: 80% | remaining binding at 1 µM (ERK2): 99% | remaining binding at 1 µM (FAK): 83% | remaining binding at 1 µM (FGFR1): 83% | remaining binding at 1 µM (IGF1R): 100% | remaining binding at 1 µM (KIT(L576P)): 72% | remaining binding at 1 µM (MEK4): 89% | remaining binding at 1 µM (MELK): 96% | remaining binding at 1 µM (MST1): 92% | potency versus the other inhibitors tested ([7]; 10-dose series from 0.5 nM to 10 µM, vs dinaciclib, KB-0742, atuveciclib): higher potency | increase in potency compared with other inhibitors currently in development ([7]; CDK9): > 10 fold | potency versus the other inhibitors tested [8]: higher potency | potency versus the other inhibitors tested (GSK3β [9]): higher potency
